For one data set, the system named is enterovirus strain 6. Nature of the data set: microbe, parasite or virus in culture. The data set is classed as cell-based. The conditions noted are these: inhibition of viral CPE; for inhibition at 0.01 µM: 10 nM, read-out: Inh. at 10 nM, EV6; for inhibition at 0.1 µM: 100 nM, read-out: Inh. at 100 nM, EV6.
The subject of the next data set is enterovirus strain 30. Put plainly: Antiviral CPE inhibition assay in mammalian cell culture, EV30. The class given is cell-based. The conditions noted are these: inhibition of viral CPE; for inhibition at 0.01 µM: 10 nM, read-out: Inh. at 10 nM, EV30; for inhibition at 0.1 µM: 100 nM, read-out: Inh. at 100 nM, EV30.
In another data set the test system is enterovirus D68. Nature of the data set: Antiviral CPE inhibition assay in mammalian cell culture, EV-D68. The class given is cell-based. The following applies: Enterovirus D, EVD68, inhibition of viral CPE; for inhibition at 0.01 µM: 10 nM, read-out: Inh. at 10 nM, EV-D68; for inhibition at 0.1 µM: 100 nM, read-out: Inh. at 100 nM, EV-D68.
In the next data set the test system is enterovirus strain 71. Put plainly: Antiviral CPE inhibition assay in mammalian cell culture, EV71. The data set is classed as cell-based. The conditions noted are these: inhibition of viral CPE; for inhibition at 0.01 µM: 10 nM, read-out: Inh. at 10 nM, EV71; for inhibition at 0.1 µM: 100 nM, read-out: Inh. at 100 nM, EV71.
Data set [1] deals with coxsackie B virus strain 1. Put plainly: Antiviral CPE inhibition assay in mammalian cell culture, Cox B1. The conditions noted are these: for inhibition at 0.01 µM: read-out: Inh. at 10 nM, Cox B1; for inhibition at 0.1 µM: read-out: Inh. at 100 nM, Cox B1. The class given is cell-based.
The test system of data set [2] is coxsackie B virus strain 2. Nature of the data set: Antiviral CPE inhibition assay in mammalian cell culture, Cox B2. The conditions noted are these: for inhibition at 0.01 µM: read-out: Inh. at 10 nM, Cox B2; for inhibition at 0.1 µM: read-out: Inh. at 100 nM, Cox B2. The class given is cell-based.
Data set [3] deals with coxsackie B virus strain 3. Nature of the data set: Antiviral CPE inhibition assay in mammalian cell culture, Cox B3. The data set is classed as cell-based. The conditions noted are these: for inhibition at 0.01 µM: read-out: Inh. at 10 nM, Cox B3; for inhibition at 0.1 µM: read-out: Inh. at 100 nM, Cox B3.
Data set [4] deals with coxsackie B virus strain 5. Put plainly: Antiviral CPE inhibition assay in mammalian cell culture, Cox B5. The class given is cell-based. The conditions noted are these: for inhibition at 0.01 µM: read-out: Inh. at 10 nM, Cox B5; for inhibition at 0.1 µM: read-out: Inh. at 100 nM, Cox B5.
For the next data set, the system named is polio virus strain 1. Put plainly: organism not typed. The data set is classed as cell-based. The following applies: for inhibition at 0.01 µM: read-out: Inh. at 10 nM, Polio 1; for inhibition at 0.1 µM: read-out: Inh. at 100 nM, Polio 1.
The target of another data set is T1, CYP3A4 (Homo sapiens, UniProt P08684).
T1 construct: from tissue; host or cells: human liver microsomes
T1 sequence (P08684 whole entry): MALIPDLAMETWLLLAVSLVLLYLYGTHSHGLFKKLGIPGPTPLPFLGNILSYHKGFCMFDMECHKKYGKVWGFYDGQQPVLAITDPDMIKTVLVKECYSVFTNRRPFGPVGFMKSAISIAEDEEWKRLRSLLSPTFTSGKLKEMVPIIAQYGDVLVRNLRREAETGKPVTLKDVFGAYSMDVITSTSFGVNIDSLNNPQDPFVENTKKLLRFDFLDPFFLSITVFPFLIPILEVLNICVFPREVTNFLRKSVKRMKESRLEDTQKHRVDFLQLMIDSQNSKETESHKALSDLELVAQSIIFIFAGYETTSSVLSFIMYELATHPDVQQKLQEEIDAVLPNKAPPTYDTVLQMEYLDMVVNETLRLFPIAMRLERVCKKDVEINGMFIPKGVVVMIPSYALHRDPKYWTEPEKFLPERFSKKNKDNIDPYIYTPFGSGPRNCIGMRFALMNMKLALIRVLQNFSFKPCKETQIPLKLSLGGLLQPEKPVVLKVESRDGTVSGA
Nature of the data set: In vitro CYP 3A4 enzyme inhibition in human liver microsomes by probe substrate method. The class given is in vitro ADME. The following applies: human liver microsomes 0.5 mg/mL; probe substrate Midazolam 5 μM. On the procedure:
In Vitro CYP 3A4 Enzyme Inhibition Study in Human Liver Microsomes by Probe Substrate Method
In vitro CYP3A4 enzyme inhibition assay was performed using Human liver microsomes at 0.5 mg/mL concentration. Ketoconazole was used as reference inhibitor and Midazolam was used as selective probe substrate for CYP 3A4 enzyme. Serial dilution of test/control items was prepared in potassium phosphate buffer (50 mM, pH 7.40) to obtain eight concentrations each in a 1:4 dilution pattern. The percentage of acetonitrile/DMSO was maintained at 2.5%/0.25% in 2.5× serially diluted control/test item solutions respectively. The final percentage of acetonitrile/DMSO was 1%/0.1% respectively. Intermediate solutions such as 10× working solution (5 mg/mL) of Human liver microsomal solution, 10× concentration of reference probe substrates in buffer, 5× concentrations of Cofactors (5.0 mM NADP+, 25.0 mM G-6-P, 3.0 IU/mL G-6-PDH and 10.0 mM MgCl2) were prepared in potassium phosphate buffer. The final concentration of liver microsomes in the reaction mixture was 0.5 mg/mL, cofactors was 1.0 mM NADP+, 5.0 mM G-6-P, 0.6 IU/mL G-6-PDH and 2.0 mM MgCl2. Midazolam was tested at 5 μM test concentration. 40 μL of 2.5× serially diluted test/control item solutions and 10 μL of […] liver microsomal solution were added to 96 well plate and incubated for 10 min at 37° C. with shaking condition (400 rpm) using Thermomixer. After pre incubation, 20 μL of potassium phosphate buffer, 10 μL of respective probe substrate working solution and 20 μL of cofactor mix was added.
(In general: Microsomes from liver hold many membrane-bound enzymes, among them those of drug oxidation.)

A short description of data set [5]: Metabolic stability in human liver microsomes. The following applies: 5 μM test item, 0.25 mg/mL microsomal protein. The data set is classed as in vitro ADME. On the procedure: (§1) Metabolic stability assay was carried out using Human/Rat liver microsomes. […] Test item/Control items were incubated with Human/Rat liver microsomes with cofactors and without cofactors. The reaction mixture (100 μL) was removed at specified time period and the reaction was stopped by addition of stop solution. The samples were extracted in presence of internal standard and were analyzed using LC-MS/MS. The percent of the test/Control item remaining after specified incubation period was calculated with respect to the peak area ratio at time 0 min. […] The reaction mixture was incubated further at 37° C. for specified incubation time points (With Cofactors: 0, 15, 30, 60 and 120 min; Without Cofactors: 0 and 120 min). 100 μL incubation samples of test items and Control items at specified incubation time points were transferred to respective tubes for sample extraction. Test and Control item specimens were extracted by Protein precipitation method. A 100 μL incubation sample at each time point was added to tubes containing 200 μL of ice-cold acetonitrile and 50 μL Haloperidol solution (0.5 μg/mL). Then the tubes were vortex mixed thoroughly and centrifuged at 10000 rpm for 10 minutes at 4° C. A clear supernatant of 200 μL of samples were submitted for LC-MS/MS analysis.

A short description of data set [6]: Metabolic stability in rat liver microsomes. The data set is classed as in vitro ADME. The conditions noted are these: 5 μM test item, 0.25 mg/mL microsomal protein. On the procedure:
as §1

Data set [7] is described as follows: Human plasma protein binding (Rapid Equilibrium Dialysis). The class given is in vitro ADME. The following applies: pH 7.4, RED device, 37° C. On the procedure:
(§2) Plasma protein binding study was performed using a Rapid Equilibrium Dialysis (RED) device containing dialysis membrane with a molecular weight cut-off of 8,000 Daltons. Each dialysis insert contained two chambers. The red chamber was for the plasma while the white chamber was for the buffer. Test items and Control items (Warfarin and Propranolol) were prepared at a required test concentration of 10 μM in Human/Rat plasma (pH adjusted to 7.40) using 10 mM DMSO stocks (final DMSO concentration was 0.1%). 300 μL of plasma sample was added into the sample chamber. 500 μL of buffer was added into the buffer chamber. After sealing the RED device with an adhesive film, incubation was done at 37° C. with shaking at 300 rpm for 4 h. Following incubation, an aliquot of 50 μL was removed from each well (plasma and buffer side) and diluted with equal volume of opposite matrix to nullify the matrix effect and subjected for sample extraction.
(§3) All samples were extracted by Protein Precipitation method by adding 200 μL of ice cold Acetonitrile and 50 μL of internal standard (Haloperidol at 0.1 μg/mL) solution. The tubes were vortex mixed thoroughly and centrifuged at 10000 rpm, 4° C. for 10 minutes. A clear supernatant of 200 μL of samples were submitted for LC-MS/MS analysis.
In general terms: Equilibrium dialysis compares concentrations on both sides of a semipermeable membrane.

Data set [8] in a line: Rat plasma protein binding (Rapid Equilibrium Dialysis). The class given is in vitro ADME. The conditions noted are these: pH 7.4, RED device, 37° C. On the procedure:
as §2, §3

The structures appear in SMILES notation. Where only a bound is given, the exact number is not on record here.

A word on the IC50: it is the concentration at which inhibition is half-maximal. `COc1ccc(-c2c(C)nc3c(NCc4ccnc(C)c4)cc(C)nn23)cc1OC` [Ex. 1, 3-(3,4-dimethoxyphenyl)-2,6-dimethyl-N-((2-methylpyridin-4-yl)methyl)imidazo[1,2-b]pyridazin-8-amine]: the inhibition at 0.01 µM came to 100% in the data set on enterovirus strain 6; 100% in the data set with enterovirus strain 30; 85% in the data set on enterovirus D68; 68% in the data set with enterovirus strain 71; 93% in [1]; 100% in data set [2]. In addition, the inhibition at 0.01 µM in data set [3] was 100%; in data set [4], 80%; in the data set on polio virus strain 1, 100%. Also, the inhibition at 0.1 µM in the data set on enterovirus strain 6 came to 100%; in the data set with enterovirus strain 30, 100%; in the data set on enterovirus D68 it was 83%; with enterovirus strain 71, 77%; in [1], 100%; in data set [2], 100%. The inhibition at 0.1 µM (in data set [3]; in data set [4]; with polio virus strain 1) was 100% throughout. Also, the IC50 against CYP3A4 is 23.1 µM.

As a reminder, the fraction unbound is free concentration divided by total concentration. In the case of `Cc1cc(NCc2ccnc(F)c2)n2nc(C)c(-c3ccc4c(c3)c(C)nn4C)c2n1` [Ex. 3, 3-(1,3-dimethyl-1H-indazol-5-yl)-2,5-dimethyl-N-[(2-fluoropyridin-4-yl)methyl]pyrazolo[1,5-a]pyrimidin-7-amine], the inhibition at 0.01 µM with enterovirus strain 6 amounted to 88%; in the data set with enterovirus strain 30, 100%; with enterovirus D68 it was 76%; with enterovirus strain 71, 82%; in data set [1], 68%; in data set [2], 100%. In addition, the figures for the inhibition at 0.01 µM (in [3]; in data set [4]; with polio virus strain 1) were 100%, 48% and 100%, respectively. For the same compound, the inhibition at 0.1 µM in the data set on enterovirus strain 6 turned out to be 100%; in the data set on enterovirus strain 30, 100%; in the data set with enterovirus D68, 70%; in the data set with enterovirus strain 71 it was 81%; in data set [1] it was 100%; in data set [2], 100%. Besides, the inhibition at 0.1 µM (in [3]; in data set [4]; with polio virus strain 1) was 100% throughout. Moreover, the half-inhibitory concentration (IC50) against CYP3A4 is above 25 µM. In addition, the “% remaining after incubation for 60 min, Human microsomes” value in data set [5] amounted to 96.1%. Besides, in [6], the “% remaining after incubation for 60 min, Rat microsomes” value came out at 99.4%. The free fraction (fraction unbound) at 4 h, 10 μM is 0.022 in data set [7] and 0.059 in data set [8].

On to `COc1ccc(-c2c(C)nn3c(NCc4ccncc4)cc(C)nc23)cc1OC` [X, 3-(3,4-dimethoxyphenyl)-2,5-dimethyl-N-(pyridin-4-ylmethyl)pyrazolo[1,5-a]pyrimidin-7-amine, reference compound], for which the inhibition at 0.01 µM in the data set with enterovirus strain 6 was 100%; in the data set with enterovirus strain 30 it was 100%; with enterovirus D68 it was 86%; in the data set with enterovirus strain 71, 82%; in data set [1], 100%; in data set [2], 100%. For the same compound, the inhibition at 0.01 µM (in [3]; in [4]; with polio virus strain 1) was 100% in each case. The inhibition at 0.1 µM with enterovirus strain 6 turned out to be 100%; in the data set with enterovirus strain 30 it was 100%; in the data set on enterovirus D68, 86%; in the data set on enterovirus strain 71, 82%; in data set [1], 100%; in [2], 100%. Besides, the inhibition at 0.1 µM (in [3]; in data set [4]; in the data set on polio virus strain 1) was 100% throughout. It took 0.97 µM to reach half-maximal inhibition against CYP3A4 (IC50).

Consider `COc1ccc(-c2c(C)nc3c(NCc4ccnc(F)c4)cc(C)nn23)cc1OC` [compound 2, 3-(3,4-dimethoxyphenyl)-N-((2-fluoropyridin-4-yl)methyl)-2,6-dimethylimidazo[1,2-b]pyridazin-8-amine], for which the inhibition at 0.01 µM in the data set on enterovirus strain 6 amounted to 100%; in the data set on enterovirus strain 30 it was 100%; with enterovirus D68 it was 73%; in the data set with enterovirus strain 71, 76%; in [1] it was 100%; in [2], 100%. For the same compound, the inhibition at 0.01 µM in [3] turned out to be 100%; in [4] it was 84%; with polio virus strain 1, 100%. For the same compound, the inhibition at 0.1 µM with enterovirus strain 6 is 100%; with enterovirus strain 30, 100%; with enterovirus D68, 68%; in the data set with enterovirus strain 71 it was 75%; in data set [1], 100%; in data set [2], 100%. Besides, the inhibition at 0.1 µM (in data set [3]; in [4]; in the data set on polio virus strain 1) was 100% throughout. Moreover, the 50% inhibitory concentration (IC50) against CYP3A4 is above 25 µM.

Source of the values: patent US12319696B2, “2,6-dimethyl-n-((pyridin-4-yl)methyl)imidazo[1,2-b]pyridazin-8-amine and 2,5-dimethyl-n-[(pyridin-4-yl)methyl]pyrazolo[1,5-a]pyrimidin-7-amine derivatives for treating viral infections” (CUROVIR AB, priority 2018, dated 2025).
